Reference: ChEMBL document CHEMBL2396570, “Structural basis for the design and synthesis of selective HDAC inhibitors” (Bioorg Med Chem, 2013)

Key:
Homo sapiens [1] = organism: Homo sapiens; experiment: Selectivity ratio for human HDAC4 over human HDAC8
Homo sapiens [2] = organism: Homo sapiens; experiment: Selectivity ratio for human HDAC4 over human HDAC3
Homo sapiens [3] = organism: Homo sapiens; experiment: Selectivity ratio for human HDAC4 over human HDAC1
Homo sapiens [4] = organism: Homo sapiens; experiment: Selectivity ratio for human HDAC4 over human HDAC2

Measured: Selectivity ratio

Cn1cc(/C=C/C(=O)c2cccc(F)c2)cc1/C=C/C(=O)NO
176: Homo sapiens [1] | Homo sapiens [2] | Homo sapiens [3] | Homo sapiens [4]
